Experiments:
Assay in all cases: cells
[1] = tested on: SCC-25; format: functional, cell-based, Homo sapiens; settings: Homo sapiens, SCC-25;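 further: growth inhibition of SCC-25 cells, measured with a cell viability assay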
Description: SANGER: Inhibition of human SCC-25 cell growth in a cell viability assay.

[2] = tested on: A 172; format: functional, cell-based, Homo sapiens; settings: Homo sapiens, A 172;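 further: growth inhibition of A172 cells, measured with a cell viability readout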
Description: SANGER: Inhibition of human A172 cell growth in a cell viability assay.

[3] = tested on: OVCAR-8; format: functional, cell-based, Homo sapiens; settings: Homo sapiens, OVCAR-8;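 further: growth inhibition of human OVCAR-8 cells, read out by a cell viability assay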
Description: SANGER: Inhibition of human OVCAR-8 cell growth in a cell viability assay.

[4] = tested on: QIMR-WIL; format: functional, cell-based; settings: Homo sapiens;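 further: growth inhibition of QIMR-WIL cells, read out with a cell viability assay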
Description: SANGER: Inhibition of human QIMR-WIL cell growth in a cell viability assay.

[5] = tested on: LNCaP-Clone-FGC; format: functional, cell-based, Homo sapiens; settings: Homo sapiens, LNCaP-Clone-FGC
Description: SANGER: Inhibition of human LNCaP-Clone-FGC cell growth in a cell viability assay.

[6] = tested on: HuP-T3; format: functional, cell-based, Homo sapiens; settings: Homo sapiens, HuP-T3;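 further: HuP-T3 cell growth inhibition, read out with a cell viability assay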
Description: SANGER: Inhibition of human HuP-T3 cell growth in a cell viability assay.

[7] = tested on: SNU-387; format: functional, cell-based, Homo sapiens; settings: Homo sapiens, SNU-387
Description: SANGER: Inhibition of human SNU-387 cell growth in a cell viability assay.

[8] = tested on: SW1463; format: functional, cell-based, Homo sapiens; settings: Homo sapiens, SW1463;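 further: growth inhibition of SW1463 cells, determined with a cell viability assay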
Description: SANGER: Inhibition of human SW1463 cell growth in a cell viability assay.

[9] = tested on: SK-MEL3; format: functional, cell-based, Homo sapiens, SK-MEL-3; settings: Homo sapiens, SK-MEL3;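 further: growth inhibition of human SK-MEL-3 cells, read out with a cell viability assay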
Description: SANGER: Inhibition of human SK-MEL-3 cell growth in a cell viability assay.

[10] = tested on: NCI-H23; format: functional, cell-based, Homo sapiens; settings: Homo sapiens, NCI-H23;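 further: cell viability assay measuring growth inhibition of NCI-H23 cells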
Description: SANGER: Inhibition of human NCI-H23 cell growth in a cell viability assay.

[11] = tested on: UACC-257; format: functional, cell-based, Homo sapiens; settings: Homo sapiens, UACC-257
Description: SANGER: Inhibition of human UACC-257 cell growth in a cell viability assay.

[12] = tested on: COR-L88; format: functional, cell-based; settings: Homo sapiens;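 further: growth inhibition of COR-L88 cells, read out with a cell viability assay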
Description: SANGER: Inhibition of human COR-L88 cell growth in a cell viability assay.

[13] = tested on: NB69; format: functional, cell-based, Homo sapiens; settings: Homo sapiens, NB69;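 further: growth inhibition of NB69 cells, determined by a cell viability assay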
Description: SANGER: Inhibition of human NB69 cell growth in a cell viability assay.

[14] = tested on: TE-5; format: functional, cell-based, Homo sapiens; settings: Homo sapiens, TE-5;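 further: inhibition of cell growth, read out by a cell viability assay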
Description: SANGER: Inhibition of human TE-5 cell growth in a cell viability assay.

[15] = tested on: COR-L23; format: functional, cell-based, Homo sapiens; settings: Homo sapiens, COR-L23;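 further: cell viability assay measuring how strongly compounds suppress growth of COR-L23 cells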
Description: SANGER: Inhibition of human COR-L23 cell growth in a cell viability assay.

[16] = tested on: MFM-223; format: functional, cell-based, Homo sapiens; settings: Homo sapiens, MFM-223
Description: SANGER: Inhibition of human MFM-223 cell growth in a cell viability assay.

[17] = tested on: NCI-H358; format: functional, cell-based, Homo sapiens; settings: Homo sapiens, NCI-H358;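 further: growth inhibition of NCI-H358 human cells, read out with a cell viability assay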
Description: SANGER: Inhibition of human NCI-H358 cell growth in a cell viability assay.

[18] = tested on: IST-MES1; format: functional, cell-based, Homo sapiens; settings: Homo sapiens, IST-MES1;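 further: growth inhibition of IST-MES1 cells, measured with a cell viability assay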
Description: SANGER: Inhibition of human IST-MES1 cell growth in a cell viability assay.

[19] = tested on: COR-L105; format: functional, cell-based, Homo sapiens; settings: Homo sapiens, COR-L105;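 further: cell growth inhibition determined with a viability assay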
Description: SANGER: Inhibition of human COR-L105 cell growth in a cell viability assay.

[20] = tested on: EW-1; format: functional, cell-based, Homo sapiens; settings: Homo sapiens, EW-1;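 further: growth inhibition of the human EW-1 cell line, read out by a cell viability assay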
Description: SANGER: Inhibition of human EW-1 cell growth in a cell viability assay.

[21] = tested on: EFO-27; format: functional, cell-based, Homo sapiens; settings: Homo sapiens, EFO-27;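 further: growth inhibition of EFO-27 cells, read out with a cell viability assay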
Description: SANGER: Inhibition of human EFO-27 cell growth in a cell viability assay.

[22] = tested on: MLMA; format: functional, cell-based, Homo sapiens; settings: Homo sapiens, MLMA;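 further: growth inhibition of MLMA cells (human), determined through a cell viability readout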
Description: SANGER: Inhibition of human MLMA cell growth in a cell viability assay.

[23] = tested on: HDLM-2; format: functional, cell-based; settings: Homo sapiens;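 further: cell viability assay measuring suppression of HDLM-2 proliferation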
Description: SANGER: Inhibition of human HDLM-2 cell growth in a cell viability assay.

[24] = tested on: NCI-H1304; format: functional, cell-based; settings: Homo sapiens;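 further: growth inhibition of the cancer cell line, measured in a cell viability assay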
Description: SANGER: Inhibition of human NCI-H1304 cell growth in a cell viability assay.

[25] = tested on: EW-24; format: functional, cell-based; settings: Homo sapiens;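 further: human EW-24 cancer cell line, growth inhibition read out via a cell viability assay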
Description: SANGER: Inhibition of human EW-24 cell growth in a cell viability assay.

[26] = tested on: ABC-1; format: functional, cell-based, Homo sapiens; settings: Homo sapiens, ABC-1;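 further: growth inhibition of human ABC-1 cells, read out by a cell viability assay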
Description: SANGER: Inhibition of human ABC-1 cell growth in a cell viability assay.

[27] = tested on: BFTC-905; format: functional, cell-based, Homo sapiens; settings: Homo sapiens, BFTC-905
Description: SANGER: Inhibition of human BFTC-905 cell growth in a cell viability assay.

[28] = tested on: GAMG; format: functional, cell-based, Homo sapiens; settings: Homo sapiens, GAMG;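 further: cell growth inhibition measured by a viability assay in the GAMG human cell line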
Description: SANGER: Inhibition of human GAMG cell growth in a cell viability assay.

[29] = tested on: COLO-668; format: functional, cell-based, Homo sapiens; settings: Homo sapiens, COLO-668
Description: SANGER: Inhibition of human COLO-668 cell growth in a cell viability assay.

[30] = tested on: TE-10; format: functional, cell-based, Homo sapiens; settings: Homo sapiens, TE-10;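 further: growth inhibition of TE-10 cells, measured by a cell viability assay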
Description: SANGER: Inhibition of human TE-10 cell growth in a cell viability assay.

[31] = tested on: RPMI-8866; format: functional, cell-based; settings: Homo sapiens
Description: SANGER: Inhibition of human RPMI-8866 cell growth in a cell viability assay.

[32] = tested on: MCF7; format: functional, cell-based, Homo sapiens; settings: Homo sapiens, MCF7;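 further: growth inhibition of human MCF7 cells, read out with a cell viability assay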
Description: SANGER: Inhibition of human MCF7 cell growth in a cell viability assay.

[33] = tested on: HuP-T4; format: functional, cell-based, Homo sapiens; settings: Homo sapiens, HuP-T4;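 further: cell viability assay measuring how much HuP-T4 cell growth is inhibited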
Description: SANGER: Inhibition of human HuP-T4 cell growth in a cell viability assay.

[34] = tested on: NCI-H209; format: functional, cell-based; settings: Homo sapiens;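 further: growth inhibition of human NCI-H209 cells, measured by a cell viability assay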
Description: SANGER: Inhibition of human NCI-H209 cell growth in a cell viability assay.

[35] = tested on: NCI-H1651; format: functional, cell-based, Homo sapiens; settings: Homo sapiens, NCI-H1651;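 further: Read-out is a cell viability assay, with IC50 expressing inhibition of NCI-H1651 cell growth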
Description: SANGER: Inhibition of human NCI-H1651 cell growth in a cell viability assay.

[36] = tested on: U-118-MG; format: functional, cell-based, Homo sapiens; settings: Homo sapiens, U-118-MG
Description: SANGER: Inhibition of human U-118-MG cell growth in a cell viability assay.

[37] = tested on: EW-18; format: functional, cell-based; settings: Homo sapiens;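 further: growth inhibition of EW-18 cells, read out by a cell viability assay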
Description: SANGER: Inhibition of human EW-18 cell growth in a cell viability assay.

[38] = tested on: NCI-H1355; format: functional, cell-based, Homo sapiens; settings: Homo sapiens, NCI-H1355;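 further: growth inhibition of human NCI-H1355 cells, read out by a cell viability assay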
Description: SANGER: Inhibition of human NCI-H1355 cell growth in a cell viability assay.

[39] = tested on: IST-MEL1; format: functional, cell-based, Homo sapiens; settings: Homo sapiens, IST-MEL1;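 further: growth inhibition of the cell line, read out with a cell viability assay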
Description: SANGER: Inhibition of human IST-MEL1 cell growth in a cell viability assay.

[40] = tested on: NB6; format: functional, cell-based, Homo sapiens; settings: Homo sapiens, NB6;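 further: growth inhibition of NB6 cells, read out by a cell viability assay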
Description: SANGER: Inhibition of human NB6 cell growth in a cell viability assay.

[41] = tested on: KYSE-180; format: functional, cell-based, Homo sapiens; settings: Homo sapiens, KYSE-180;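 further: growth inhibition of KYSE-180 cells, read out with a cell viability assay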
Description: SANGER: Inhibition of human KYSE-180 cell growth in a cell viability assay.

[42] = tested on: CAPAN-1; format: functional, cell-based, Homo sapiens; settings: Homo sapiens, CAPAN-1;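 further: growth suppression of CAPAN-1 cells, read out by a cell viability assay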
Description: SANGER: Inhibition of human CAPAN-1 cell growth in a cell viability assay.

[43] = tested on: SK-N-FI; format: functional, cell-based, Homo sapiens; settings: Homo sapiens, SK-N-FI;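 further: cell viability assay measuring growth inhibition of human SK-N-FI cells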
Description: SANGER: Inhibition of human SK-N-FI cell growth in a cell viability assay.

[44] = tested on: BHY; format: functional, cell-based, Homo sapiens; settings: Homo sapiens, BHY;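 further: cell growth inhibition read out by a viability assay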
Description: SANGER: Inhibition of human BHY cell growth in a cell viability assay.

[45] = tested on: M059J; format: functional, cell-based, Homo sapiens; settings: Homo sapiens, M059J;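 further: growth inhibition of M059J cells, read out with a cell viability assay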
Description: SANGER: Inhibition of human M059J cell growth in a cell viability assay.

[46] = tested on: CCRF-CEM; format: functional, cell-based; settings: Homo sapiens;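 further: inhibition of CCRF-CEM cell growth, measured by a cell viability assay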
Description: SANGER: Inhibition of human CCRF-CEM cell growth in a cell viability assay.

[47] = tested on: GMS-10; format: functional, cell-based, Homo sapiens; settings: Homo sapiens, GMS-10;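 further: growth inhibition of GMS-10 cells, read out as cell viability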
Description: SANGER: Inhibition of human GMS-10 cell growth in a cell viability assay.

[48] = tested on: CAL-27; format: functional, cell-based, Homo sapiens; settings: Homo sapiens, CAL-27;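 further: Viability-based readout, IC50 reflecting inhibition of CAL-27 cell growth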
Description: SANGER: Inhibition of human CAL-27 cell growth in a cell viability assay.

[49] = tested on: SW1417; format: functional, cell-based, Homo sapiens; settings: Homo sapiens, SW1417;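 further: growth inhibition of human SW1417 cells, read out with a cell viability assay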
Description: SANGER: Inhibition of human SW1417 cell growth in a cell viability assay.

[50] = tested on: U2OS; format: functional, cell-based, Homo sapiens, U-2-OS; settings: Homo sapiens, U2OS;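 further: growth inhibition of human U-2-OS cells, determined with a cell viability assay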
Description: SANGER: Inhibition of human U-2-OS cell growth in a cell viability assay.

## COC(=O)CNC(=O)C(=O)OC
[1]
  IC50: 1230 µM
[2]
  IC50: 566 µM
[3]
  IC50: 593 µM
[4]
  IC50: 424 µM
[5]
  IC50: 3210 µM
[6]
  IC50: 404 µM
[7]
  IC50: 220 µM
[8]
  IC50: 1780 µM
[9]
  IC50: 279 µM
[10]
  IC50: 2950 µM
[11]
  IC50: 1090 µM
[12]
  IC50: 273 µM
[13]
  IC50: 213 µM
[14]
  IC50: 1080 µM
[15]
  IC50: 1880 µM
[16]
  IC50: > 4000 µM
[17]
  IC50: 103 µM
[18]
  IC50: > 4000 µM
[19]
  IC50: 26.4 µM
[20]
  IC50: 977 µM
[21]
  IC50: 541 µM
[22]
  IC50: 46.3 µM
[23]
  IC50: 1890 µM
[24]
  IC50: 533 µM
[25]
  IC50: 2290 µM
[26]
  IC50: 447 µM
[27]
  IC50: 580 µM
[28]
  IC50: 1380 µM
[29]
  IC50: 93.8 µM
[30]
  IC50: 629 µM
[31]
  IC50: > 4000 µM
[32]
  IC50: > 4000 µM
[33]
  IC50: 128 µM
[34]
  IC50: 1130 µM
[35]
  IC50: 1360 µM
[36]
  IC50: 784 µM
[37]
  IC50: 1510 µM
[38]
  IC50: 274 µM
[39]
  IC50: 573 µM
[40]
  IC50: 1920 µM
[41]
  IC50: > 4000 µM
[42]
  IC50: 101 µM
[43]
  IC50: > 4000 µM
[44]
  IC50: 465 µM
[45]
  IC50: 541 µM
[46]
  IC50: 37.8 µM
[47]
  IC50: 2190 µM
[48]
  IC50: > 4000 µM

## COc1cc([C@@H]2c3cc4c(cc3[C@@H](O[C@@H]3O[C@@H]5CO[C@@H](C)O[C@H]5[C@H](O)[C@H]3O)[C@H]3COC(=O)[C@H]23)OCO4)cc(OC)c1O [ETOPOSIDE]
[1]
  IC50: 6.63 µM
[2]
  IC50: 8.65 µM
[3]
  IC50: 1.09 µM
[4]
  IC50: 0.155 µM
[5]
  IC50: > 16 µM
[6]
  IC50: > 16 µM
[7]
  IC50: > 16 µM
[8]
  IC50: > 16 µM
[9]
  IC50: 10.1 µM
[10]
  IC50: 13.2 µM
[11]
  IC50: > 16 µM
[12]
  IC50: > 16 µM
[13]
  IC50: 1.09 µM
[14]
  IC50: 1.18 µM
[49]
  IC50: > 16 µM
[15]
  IC50: 6.18 µM
[16]
  IC50: > 16 µM
[17]
  IC50: 3.15 µM
[50]
  IC50: > 16 µM
[18]
  IC50: > 16 µM
[19]
  IC50: 9.57 µM
[20]
  IC50: 1.46 µM
[21]
  IC50: 3.36 µM
[22]
  IC50: 3.38 µM
[23]
  IC50: 13.8 µM
[24]
  IC50: 2.3 µM
[25]
  IC50: > 16 µM
[26]
  IC50: 0.405 µM
[27]
  IC50: 0.426 µM
[28]
  IC50: 2.61 µM
[29]
  IC50: 1.66 µM
[30]
  IC50: 2.38 µM
[31]
  IC50: 4.65 µM
[32]
  IC50: 0.831 µM
[33]
  IC50: 1.45 µM
[34]
  IC50: 1.21 µM
[35]
  IC50: > 16 µM
[36]
  IC50: > 16 µM
[37]
  IC50: > 16 µM
[38]
  IC50: 0.39 µM
[39]
  IC50: 3 µM
[40]
  IC50: > 16 µM
[41]
  IC50: 2.07 µM
[42]
  IC50: 1.25 µM
[43]
  IC50: > 16 µM
[44]
  IC50: 1.53 µM
[45]
  IC50: 0.364 µM
[46]
  IC50: 0.17 µM
[47]
  IC50: > 16 µM
[48]
  IC50: 10.4 µM

Reference: ChEMBL document CHEMBL1201861, “Genomics of Drug Sensitity in Cancer screening data, Wellcome Trust Sanger Institute”
